# Reference: US20140017187A1, “Use of 5-(7-methoxy-3,3-dimethyl-2,3-dihydro-1-benzoxepin-5-yl)-3-methyl-penta-2,4-dienoic acid as a cosmetic” (Merck Patent GmbH, priority 2008, published 2014)
# Assays:
# human skin model = experiment: cDNA microarray gene expression profiling (Affymetrix) of treated skin equivalents, GeneGO MetaCore analysis; assay type: cell-based
# Experimental: One of the advantages of cDNA microarray is the possibility to observe the expression pattern of the whole genes and compare with different conditions. This is the first study to determine the gene expression profiles of Compound-treated human skin. For the analysis of deregulated gene expression induced by substance Compound, treated and control samples from a human skin model were analyzed with Affymetrix oligonucleotide microarrays. Skin has been among the first organs analysed using DNA-Microarrays. In addition, epidermal keratinocytes have been the target of many studies because they respond to a rich variety of inflammatory and immunmodulating cytokines, hormones, vitamins, ultraviolet (UV) light, toxins and physical injury. Altered gene expression after applying substance Compound was analysed with an Affymetrix system.
# For gene expression studies skin equivalents were treated with 50 μL of 2 relevant substance Compound with a concentration of c=50 μM in PBS-buffer/DMSO. Buffer-treated skin equivalents served as controls.
# A ratio (log 2) value of zero indicates no regulation, whereas positive (log 2) values indicate an upregulation and negative (log 2) values a downregulation of the relevant gene.
# The experiment contains 759 genes with the specified threshold (Appendix A)
# GeneGO's Metacore (Pathways and Maps) Software.
# Enrichment analysis consists of matching gene IDs for the common, similar and unique sets of the uploaded files with gene IDs in functional ontologies in MetaCore. The ontologies include canonical pathway maps, GeneGo cellular processes, GO cellular processes and diseases categories. The degree of “relevance” to different categories for the uploaded datasets is defined by p-values, so that the lower p-value gets higher priority.
# [1] = system: subjects of skin type 3 or 4; experiment: Double blind clinical trial of skin whitening activity on forearms, versus placebo formulation; assay type: in vivo, human; settings: oil-in-water emulsion with 1.0% Compound vs placebo, forearm, twice a day, 4½ weeks
# Experimental: Skin whitening activity was evaluated in a double blind clinical trial. As study medication a oil-in-water emulsion formulation containing 1.0% of the Compound, in comparison with the same formulation containing no active ingredient (placebo) was used.
# The study was executed with subjects of skin type 3 or 4, aged from 18 to 50 years, whereby the active formulation was applied on one forearm twice a day and the placebo formulation on the other forearm for 4½ weeks. Assessment of whitening efficacy was performed on both forearms at day 0, 14 and 28 by visual assessment (examination of pigmentation differences), colorimetric measurements (using Chroma-Meter CR 300, Minolta resulting in L* values, expressing the changes in brightness, and ITA° values Individual Typology Angle expressing the melanin index) as well as digital photographs.
# [2] = Skin/eye irritation test (in house data)
smiles,measurement,setting,value
"COc1ccc2c(c1)C(/C=C/C(C)=C/C(=O)O)=CC(C)(C)CO2 [Compound, 5-(7-methoxy-3,3-dimethyl-2,3-dihydro-1-benzoxepin-5-yl)-3-methyl-penta-2,4-dienoic acid]","Compound vs. Control, ratio Log(2) value","human skin model; gene CXCL5 (CXCL5_HUMAN, C-X-C motif chemokine 5 precursor)",−0.8263 Log(2)
same,"Compound vs. Control, ratio Log(2) value","human skin model; gene CXCL12 (SDF1_HUMAN, Stromal cell-derived factor 1 precursor)",−0.8377 Log(2)
same,"Compound vs. Control, ratio Log(2) value","human skin model; gene EGFR (EGFR_HUMAN, Epidermal growth factor receptor precursor)",0.9876 Log(2)
same,"Compound vs. Control, ratio Log(2) value","human skin model; gene ELF3 (ELF3_HUMAN, ETS-related transcription factor Elf-3)",−1.46 Log(2)
same,"Compound vs. Control, ratio Log(2) value","human skin model; gene ELN (ELN_HUMAN, Elastin precursor)",0.7751 Log(2)
same,"Compound vs. Control, ratio Log(2) value","human skin model; gene EMP1 (EMP1_HUMAN, Epithelial membrane protein 1)",1.278 Log(2)
same,"Compound vs. Control, ratio Log(2) value","human skin model; gene EMR2 (EMR2_HUMAN, EGF-like module-containing mucin-like hormone receptor-like 2 precursor)",1.286 Log(2)
same,"Compound vs. Control, ratio Log(2) value","human skin model; gene FABP4 (FABPA_HUMAN, Fatty acid-binding protein, adipocyte)",2.125 Log(2)
same,"Compound vs. Control, ratio Log(2) value","human skin model; gene FGF11 (FGF11_HUMAN, Fibroblast growth factor 11)",0.9322 Log(2)
same,"Compound vs. Control, ratio Log(2) value","human skin model; gene FLNB (FLNB_HUMAN, Filamin-B)",0.6681 Log(2)
same,"Compound vs. Control, ratio Log(2) value","human skin model; gene FN1 (FINC_HUMAN, Fibronectin precursor)",1.364 Log(2)
same,"Compound vs. Control, ratio Log(2) value","human skin model; gene GPC4 (GPC4_HUMAN, Glypican-4 precursor)",0.7558 Log(2)
same,"Compound vs. Control, ratio Log(2) value","human skin model; gene GPC6 (GPC6_HUMAN, Glypican-6 precursor)",0.6711 Log(2)
same,"Compound vs. Control, ratio Log(2) value","human skin model; gene GPX7 (GPX7_HUMAN, Glutathione peroxidase 7 precursor)",0.8162 Log(2)
same,"Compound vs. Control, ratio Log(2) value","human skin model; gene HAS2 (HAS2_HUMAN, Hyaluronan synthase 2)",0.8154 Log(2)
same,"Compound vs. Control, ratio Log(2) value","human skin model; gene ICAM1 (ICAM1_HUMAN, Intercellular adhesion molecule 1 precursor)",−1.612 Log(2)
same,"Compound vs. Control, ratio Log(2) value","human skin model; gene IL6 (IL6_HUMAN, Interleukin-6 precursor)",−1.09 Log(2)
same,"Compound vs. Control, ratio Log(2) value","human skin model; gene IL6ST (IL6RB_HUMAN, Interleukin-6 receptor subunit beta precursor)",−1.628 Log(2)
same,"Compound vs. Control, ratio Log(2) value","human skin model; gene IL8 (IL8_HUMAN, Interleukin-8 precursor)",−0.6883 Log(2)
same,"Compound vs. Control, ratio Log(2) value","human skin model; gene INSIG2 (INSI2_HUMAN, Insulin-induced gene 2 protein)",0.6645 Log(2)
same,"Compound vs. Control, ratio Log(2) value","human skin model; gene ITGB5 (ITB5_HUMAN, Integrin beta-5 precursor)",0.7305 Log(2)
same,"Compound vs. Control, ratio Log(2) value","human skin model; gene ITIH5 (ITIH5_80760, inter-alpha (globulin) inhibitor H5)",1.192 Log(2)
same,"Compound vs. Control, ratio Log(2) value","human skin model; gene LAMA3 (LAMA3_HUMAN, Laminin subunit alpha-3 precursor)",0.6648 Log(2)
same,"Compound vs. Control, ratio Log(2) value","human skin model; gene LAMB3 (LAMB3_HUMAN, Laminin subunit beta-3 precursor)",1.168 Log(2)
same,"Compound vs. Control, ratio Log(2) value","human skin model; gene LAMC1 (LAMC1_HUMAN, Laminin subunit gamma-1 precursor)",0.7744 Log(2)
same,"Compound vs. Control, ratio Log(2) value","human skin model; gene LEP (LEP_HUMAN, Leptin precursor)",3.891 Log(2)
same,"Compound vs. Control, ratio Log(2) value","human skin model; gene LEPR (LEPR_HUMAN, Leptin receptor precursor)",0.7216 Log(2)
same,"Compound vs. Control, ratio Log(2) value","human skin model; gene MMP9 (MMP9_HUMAN, Matrix metalloproteinase-9 precursor)",−0.8347 Log(2)
same,"Compound vs. Control, ratio Log(2) value","human skin model; gene MMP11 (MMP11_HUMAN, Stromelysin-3 precursor)",−1.085 Log(2)
same,"Compound vs. Control, ratio Log(2) value","human skin model; gene MMP14 (MMP14_HUMAN, Matrix metalloproteinase-14 precursor)",−0.6909 Log(2)
same,"Compound vs. Control, ratio Log(2) value","human skin model; gene PLOD2 (PLOD2_HUMAN, Procollagen-lysine,2-oxoglutarate 5-dioxygenase 2 precursor)",1.455 Log(2)
same,"Compound vs. Control, ratio Log(2) value","human skin model; gene RXRA (RXRA_HUMAN, Retinoic acid receptor RXR-alpha)",0.7793 Log(2)
same,"Compound vs. Control, ratio Log(2) value","human skin model; gene S100A7 (S10A7_HUMAN, Protein S100-A7)",−0.6784 Log(2)
same,"Compound vs. Control, ratio Log(2) value","human skin model; gene S100A7A (S1A7A_HUMAN, Protein S100-A7A)",−2.659 Log(2)
same,"Compound vs. Control, ratio Log(2) value","human skin model; gene S100A12 (S10AC_HUMAN, Protein S100-A12)",−0.7202 Log(2)
same,"Compound vs. Control, ratio Log(2) value","human skin model; gene SCARB1 (SCRB1_HUMAN, Scavenger receptor class B member 1)",0.8349 Log(2)
same,"Compound vs. Control, ratio Log(2) value","human skin model; gene TGFA (TGFA_HUMAN, Protransforming growth factor alpha precursor)",0.8031 Log(2)
same,"Compound vs. Control, ratio Log(2) value","human skin model; gene UGCG (CEGT_HUMAN, Ceramide glucosyltransferase)",0.7977 Log(2)
same,"Compound vs. Control, ratio Log(2) value","human skin model; gene VLDLR (VLDLR_HUMAN, Very low-density lipoprotein receptor precursor)",0.9666 Log(2)
same,effect on GPC6 and S100A7 genes compared with old skin,"human skin model; old skin (literature): S100A7 upregulated, GPC6 downregulated",opposite effect
same,skin whitening activity,[1],extraordinary skin whitening activity
same,skin/eye irritation,[2],no skin/eye irritation
